# Results reported in PubChem BioAssay (NCI).
#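 Test compounds were applied to cells in 96-well plates for 48 hours at 5 doses. Abbreviation: GI50, concentration required for 50% inhibition of growth. The concentration for full growth arrest is given as TGI.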
# Experiments:
# Experiment in all cases: NCI anticancer screen, dose series, 48 h
# HCT-15 colon = test system: HCT-15 colon
# HT29 colon = test system: HT29 colon
# MCF7 breast = test system: MCF7 breast
# MOLT-4 leukemia = test system: MOLT-4 leukemia
# NCI-H522 lung = test system: NCI-H522 lung
# NCI/ADR-RES ovarian = test system: NCI/ADR-RES ovarian
# OVCAR-3 ovarian = test system: OVCAR-3 ovarian
# OVCAR-5 ovarian = test system: OVCAR-5 ovarian
# U251 CNS = test system: U251 CNS
# UACC-62 melanoma = test system: UACC-62 melanoma
SMILES,GI50 (HCT-15 colon),TGI (HCT-15 colon),GI50 (HT29 colon),TGI (HT29 colon),GI50 (MCF7 breast),TGI (MCF7 breast),GI50 (MOLT-4 leukemia),TGI (MOLT-4 leukemia),GI50 (NCI-H522 lung),TGI (NCI-H522 lung),GI50 (NCI/ADR-RES ovarian),TGI (NCI/ADR-RES ovarian),GI50 (OVCAR-3 ovarian),TGI (OVCAR-3 ovarian),GI50 (OVCAR-5 ovarian),TGI (OVCAR-5 ovarian),GI50 (U251 CNS),TGI (U251 CNS),GI50 (UACC-62 melanoma),TGI (UACC-62 melanoma)
COc1cc(-c2cc(-c3cc4c([nH]c5ccccc54)c(-c4cc(OC)c(OC)c(OC)c4)n3)cc(-c3ccccc3)n2)cc(OC)c1OC,3.37 µM,> 100 µM,4.03 µM,25.5 µM,3.56 µM,20.8 µM,4.09 µM,41.9 µM,2.32 µM,8.01 µM,3.12 µM,94.8 µM,3.9 µM,17.3 µM,25.7 µM,> 100 µM,4.25 µM,29.1 µM,2.9 µM,18 µM
C[C@@H]1CC[C@@H]2[C@@H]1[C@H](OC(=O)/C=C/c1ccccc1)[C@]1(C3CCCCC3)C[C@@H](OC(=O)CO)[C@@]2(C)O1,2.44 µM,7.93 µM,2.89 µM,8.05 µM,2.58 µM,10.8 µM,2.61 µM,6.07 µM,2.4 µM,6.75 µM,0.515 µM,5.2 µM,2.53 µM,7.3 µM,1.93 µM,5.59 µM,2.7 µM,8.26 µM,3.11 µM,10.1 µM
COc1ccc(-c2nc3ccc(-c4nc5ccc(N6CCN(c7ccccc7)CC6)cc5[nH]4)cc3[nH]2)cc1OC,5.13 µM,> 100 µM,1.2 µM,2.68 µM,0.138 µM,0.649 µM,1.37 µM,6.47 µM,1.81 µM,4.15 µM,> 100 µM,> 100 µM,2.04 µM,3.64 µM,2.21 µM,4.48 µM,1.2 µM,3.02 µM,1.41 µM,3.63 µM
CCOC(=O)Nc1ccc(C)c(NC(=O)OCC)c1,,> 100 µM,,> 100 µM,,> 100 µM,,> 100 µM,,> 100 µM,,> 100 µM,,> 100 µM,,> 100 µM,,> 100 µM,,> 100 µM
COc1cccc2c1C(=O)c1c(O)c3c(c(O)c1C2=O)C[C@](O)(C(=O)CO)C[C@H]3O[C@@H]1C[C@@H](NC(=O)CCCCCN(C)C2(c3ccc(F)cc3)CC3CCC2C3)[C@H](O)[C@@H](C)O1 (some centres undefined),2.19 µM,9.11 µM,0.676 µM,1.5 µM,0.966 µM,2.7 µM,0.304 µM,2.61 µM,0.707 µM,1.57 µM,13 µM,50 µM,1.41 µM,4.27 µM,0.988 µM,2.19 µM,0.739 µM,1.49 µM,6.56 µM,15.7 µM
CC(C)Oc1ccc2cc(-c3nn(CC4CCNCC4)c4ncnc(N)c34)ccc2c1,3.74 µM,15.8 µM,2.78 µM,12.2 µM,5.59 µM,20.1 µM,1.97 µM,5.95 µM,11 µM,25.4 µM,6.23 µM,19.6 µM,12.5 µM,25 µM,11.9 µM,24.1 µM,9.02 µM,21.7 µM,6.41 µM,20.4 µM
COc1ccc(-c2nn(-c3ccc(NC(=O)c4ccc(Cl)c(Cl)c4)cc3)cc2-c2ccncc2)cc1Cl,1.09 µM,> 11 µM,1.21 µM,3.22 µM,2.97 µM,> 50 µM,2.3 µM,> 50 µM,,> 46.3 µM,4.12 µM,> 50 µM,> 20.3 µM,> 50 µM,3.24 µM,> 50 µM,1.3 µM,> 50 µM,1.78 µM,> 38.7 µM
COc1ccc(Nc2nnc(-c3cc(O)ccc3O)s2)cc1,> 50 µM,> 50 µM,> 50 µM,> 50 µM,11.4 µM,35.4 µM,6.5 µM,20.6 µM,16.1 µM,> 50 µM,> 50 µM,> 50 µM,> 50 µM,> 50 µM,> 50 µM,> 50 µM,16.7 µM,> 50 µM,9.89 µM,20.8 µM
Cn1cc(C2=C(c3cn(CCCCO)c4ccccc34)C(=O)NC2=O)c2ccccc21,7.72 µM,> 25 µM,8.3 µM,> 25 µM,4.45 µM,> 25 µM,7.68 µM,> 22 µM,10.4 µM,> 25 µM,11.2 µM,> 25 µM,8.09 µM,> 25 µM,13.5 µM,> 25 µM,8.55 µM,> 25 µM,9.07 µM,> 24.1 µM
